Data as given in patent publication US10399991B2, “Kv1.3 inhibitors and their medical applications” (4SC AG, priority 2015, dated 2019).

How the values were obtained:
[1] = molecular target: Kv1.3 (Homo sapiens (Human), UniProt P22001); test: Patch-clamp assay for inhibitory activity on Kv1.3 (whole cell patch-clamp recording); type: cell-based; conditions: n≥2 per concentration
Protocol: Patch-Clamp Assay for Inhibitory Activity on Kv1.3
For a description of a Kv1.3 patch-clamp assay, see Grissmer et al., Mol. Pharmacol. 1994, 45, 1227; whole cell patch-clamp recording was performed with n≥2 individual experiments at each compound concentration using different cells. Three or more different concentrations were determined per dose response curve.

[2] = test system: Peripheral blood mononuclear cells (PBMC); test: T cell proliferation assay (anti-CD3 activated PBMC, BrdU based cell proliferation ELISA); conditions: human PBMC, TRAM-34 (5 μM), 50 ng/ml anti-CD3, 48 hours; read-out: IC50(BrdU incorporation)
Description: T cell proliferation assay (in analogy to Pegoraro et al., Bioorg. Med. Chem. Lett. 2009, 19, 2299)
Peripheral blood mononuclear cells (PBMC) from healthy human donors were isolated by centrifugation over a density gradient in an aqueous solution, comprising a high molecular weight polysaccharide and sodium diatrizionate, and having a density of 1.077±0.001 (Ficoll-Hypaque by Sigma-Aldrich, Germany; according to manufacturer's instructions). Purified PBMC were washed twice with PBS and resuspended in RPMI1640 culture medium (Gibco—Life Technologies) supplemented with 10% heat inactivated fetal calf serum, 1.5 mM L-glutamine, 100 U penicillin/ml, and 100 […] (all from PAA—GE Healthcare). For stimulation, PBMC were seeded at 1×10^5 cells/well, incubated with TRAM-34 (5 μM) and the test compounds for 4 h and activated with 50 ng/ml anti-CD3 (from eBioscience). After 48 hours proliferation was measured using a BrdU based cell proliferation ELISA according to the manual.

[3] = test system: female Dark Agouti rats; test: Pristane-induced Arthritis (PIA) model; type: in vivo, rat; conditions: for Arthritic Index (AI): maximum AI=16, controls AI around 14; for amelioration of arthritis: Example 53 60 mg/kg p.o. sid, Example 34 45 mg/kg p.o. bid
Protocol: Pristane-induced Arthritis (PIA) Model:
Arthritis was induced in female Dark Agouti rats by intradermal injection of 150 μL/rat pristane into the base of the tail on DAY0, according to Vingsbo et al., Am. J. Pathol. 1996, 149, 1675. Compound treatment was started on DAY16 and continued until DAY30, dosing Example 53 at 60 mg/kg, p.o., sid, and Example 34 at 45 mg/kg, p.o., bid, each in a lipophilic formulation. As a positive control, methotrexate (MTX) was dosed i.p., sid, with 0.05 mg/kg, also starting DAY16. Arthritis development was monitored daily by a macroscopic scoring system for the four limbs ranging from 0 to 4 (0=no visible effects of arthritis; 1=edema and/or erythema of one digit; 2=edema and/or erythema of two joints; 3=edema and/or erythema of more than two joints; 4=severe arthritis of the entire paw and digits, associated with ankylosis and deformity of the paw.), resulting in an Arthritic Index (AI) reflecting the sum of scores of all 4 limbs per rat (maximum AI=16).

Sequence of Kv1.3 (P22001 whole entry): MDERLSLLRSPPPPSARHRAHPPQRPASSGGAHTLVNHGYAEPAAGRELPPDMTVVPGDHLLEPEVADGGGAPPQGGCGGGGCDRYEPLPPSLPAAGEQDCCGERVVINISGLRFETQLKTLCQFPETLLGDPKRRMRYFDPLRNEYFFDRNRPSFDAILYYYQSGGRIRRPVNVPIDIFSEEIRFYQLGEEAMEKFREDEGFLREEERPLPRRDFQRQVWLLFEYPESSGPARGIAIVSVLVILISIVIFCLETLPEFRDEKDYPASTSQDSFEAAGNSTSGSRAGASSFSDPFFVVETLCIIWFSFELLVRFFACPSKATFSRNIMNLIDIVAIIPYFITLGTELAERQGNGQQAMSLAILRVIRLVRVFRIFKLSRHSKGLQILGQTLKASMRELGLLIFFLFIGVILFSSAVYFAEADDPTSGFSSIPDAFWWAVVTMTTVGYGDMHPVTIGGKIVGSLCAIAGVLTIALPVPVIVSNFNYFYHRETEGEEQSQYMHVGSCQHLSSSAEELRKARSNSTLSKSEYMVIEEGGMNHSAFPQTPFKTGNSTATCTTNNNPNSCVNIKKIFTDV

Compound	IC50 [1] [nM]	IC50 [2] [nM]	also measured
COc1ccccc1-c1cc(=O)oc2c(C)c3occ(C)c3cc12 [Example 1, 5-(2-methoxyphenyl)-3,9-dimethyl-7H-furo[3,2-g]chromen-7-one]	≤ 500	3100 to 15000	–
Cc1c(-c2ccccc2F)c2cc3c(C)coc3c(C)c2oc1=O [Example 5, 5-(2-fluorophenyl)-3,6,9-trimethyl-7H-furo[3,2-g]chromen-7-one]	≤ 500	1300 to 3000	–
COc1ccccc1-c1c(C)c(=O)oc2c(C)c3occ(C)c3cc12 [Example 7, 5-(2-methoxyphenyl)-3,6,9-trimethyl-7H-furo[3,2-g]chromen-7-one]	≤ 500	1300 to 3000	–
Cc1c(-c2ccccc2)c2cc3c(C)coc3c(C)c2oc1=O [Example 9, 3,6,9-trimethyl-5-phenyl-7H-furo[3,2-g]chromen-7-one]	≤ 500	≤ 1200	–
CCOc1ccccc1-c1c(C)c(=O)oc2c(C)c3occ(C)c3cc12 [Example 10, 5-(2-ethoxyphenyl)-3,6,9-trimethyl-7H-furo[3,2-g]chromen-7-one]	≤ 500	≤ 1200	–
Cc1c(-c2ccccc2Cl)c2cc3c(C)coc3c(C)c2oc1=O [Example 11, 5-(2-chlorophenyl)-3,6,9-trimethyl-7H-furo[3,2-g]chromen-7-one]	≤ 500	1300 to 3000	–
CCc1coc2c(C)c3oc(=O)c(C)c(-c4ccccc4)c3cc12 [Example 16, 3-ethyl-6,9-dimethyl-5-phenyl-7H-furo[3,2-g]chromen-7-one]	≤ 500	≤ 1200	–
Cc1c(-c2ccccc2)c2cc3c(C)coc3nc2oc1=O [Example 25, 3,6-dimethyl-5-phenyl-7H-furo[2,3-b]pyrano[3,2-e]pyridin-7-one]	≤ 500	1300 to 3000	–
Cc1coc2c(C)c3[nH]c(=O)c(Br)c(-c4ccccc4)c3cc12 [Example 26, 6-bromo-3,9-dimethyl-5-phenylfuro[3,2-g]quinolin-7(8H)-one]	≤ 500	≤ 1200	–
Cc1c(-c2ccccc2F)c2cc3c(C)coc3c(C)c2[nH]c1=O [Example 30, 5-(2-fluorophenyl)-3,6,9-trimethylfuro[3,2-g]quinolin-7(8H)-one]	≤ 500	1300 to 3000	–
Cc1c(-c2ccccc2)c2cc3c(C)coc3c(C)c2[nH]c1=O [Example 31, 3,6,9-trimethyl-5-phenylfuro[3,2-g]quinolin-7(8H)-one]	≤ 500	≤ 1200	–
Cc1c(-c2ccccc2)c2cc3c(C)coc3c(C)c2n(C)c1=O [Example 34, 3,6,8,9-tetramethyl-5-phenylfuro[3,2-g]quinolin-7(8H)-one]	≤ 500	1300 to 3000	Arthritic Index (AI) ([3]; 45 mg/kg, p.o., bid, DAY16 to DAY30): around 9.1; amelioration of arthritis ([3]; DAY16 to DAY30): significant amelioration of arthritis
Cc1csc2c(C)c3oc(=O)cc(-c4ccccc4)c3cc12 [Example 37, 6,9-dimethyl-4-phenyl-2H-thieno[3,2-g]chromen-2-one]	501 to 1500	3100 to 15000	–
Cc1c(-c2ccccc2Cl)c2cc3c(C)coc3c(C)c2[nH]c1=O [Example 40, 5-(2-chlorophenyl)-3,6,9-trimethylfuro[3,2-g]quinolin-7(8H)-one]	≤ 500	≤ 1200	–
Cc1c2oc(=O)cc(-c3ccccc3)c2cc2c(C3CC3)coc12 [Example 41, 3-cyclopropyl-9-methyl-5-phenyl-7H-furo[3,2-g]chromen-7-one]	≤ 500	1300 to 3000	–
Cc1c(-c2ccccc2)c2cc3c(C)csc3c(C)c2oc1=O [Example 43, 3,6,9-trimethyl-4-phenyl-2H-thieno[3,2-g]chromen-2-one]	≤ 500	1300 to 3000	–
Cc1c(-c2ccccc2)c2cc3c(C)coc3nc2n(C)c1=O [Example 49, 3,6,8-trimethyl-5-phenylfuro[2,3-b][1,8]naphthyridin-7(8H)-one]	≤ 500	3100 to 15000	–
Cc1c(-c2cccnc2)c2cc3c(C)coc3c(C)c2oc1=O [Example 53, 3,6,9-trimethyl-5-(pyridin-3-yl)-7H-furo[3,2-g]chromen-7-one]	≤ 500	1300 to 3000	Arthritic Index (AI) ([3]; 60 mg/kg, p.o., sid, DAY16 to DAY30): around 10.4; amelioration of arthritis ([3]; DAY16 to DAY30): significant amelioration of arthritis
Cc1c(-c2cccnc2)c2cc3c(C)coc3c(C)c2[nH]c1=O [Example 54, 3,6,9-trimethyl-5-(pyridin-3-yl)furo[3,2-g]quinolin-7(8H)-one]	≤ 500	3100 to 15000	–
Cc1c(-c2cccnc2)c2cc3c(C)coc3c(C)c2n(C)c1=O [Example 55, 3,6,8,9-tetramethyl-5-(pyridin-3-yl)furo[3,2-g]quinolin-7(8H)-one]	501 to 1500	3100 to 15000	–
Cc1c(-c2ccccc2Cl)c2cc3c(C)coc3c(C)c2n(C)c1=O [Example 60, 5-(2-chlorophenyl)-3,6,8,9-tetramethylfuro[3,2-g]quinolin-7(8H)-one]	≤ 500	–	–
Cc1c(-c2ccccc2F)c2cc3c(C)coc3c(C)c2n(C)c1=O [Example 61, 5-(2-fluorophenyl)-3,6,8,9-tetramethylfuro[3,2-g]quinolin-7(8H)-one]	≤ 500	–	–
COc1ncccc1-c1c(C)c(=O)oc2c(C)c3occ(C)c3cc12 [Example 62, 5-(2-methoxypyridin-3-yl)-3,6,9-trimethyl-7H-furo[3,2-g]chromen-7-one]	501 to 1500	–	–
COc1ccncc1-c1c(C)c(=O)oc2c(C)c3occ(C)c3cc12 [Example 63, 5-(4-methoxypyridin-3-yl)-3,6,9-trimethyl-7H-furo[3,2-g]chromen-7-one]	1500 to 3000	–	–
COc1ncccc1-c1c(C)c(=O)n(C)c2c(C)c3occ(C)c3cc12 [Example 64, 5-(2-methoxypyridin-3-yl)-3,6,8,9-tetramethylfuro[3,2-g]quinolin-7(8H)-one]	1500 to 3000	–	–
CN(Cc1cnc2nc(N)nc(N)c2n1)c1ccc(C(=O)N[C@@H](CCC(=O)O)C(=O)O)cc1 [MTX, methotrexate, reference compound]	–	–	Arthritic Index (AI) ([3]; 0.05 mg/kg, i.p., sid, from DAY16): ~8.7
